Tests used:
mice = conditions: mouse, in vivo
C57BL/6J mice = assay: fear conditioning, scopolamine induced memory impairment; type: in vivo; conditions: scopolamine 1 mg/kg i.p.; J147 200 ppm, donepezil 20 ppm in food; vs scopolamine
Protocol: A total of 60 male mice aged eight weeks were housed 4 per cage and were divided into five groups with 12 mice per group. Treatments were administered in the food (TestDiet® 5015, Richmond, IN, USA) for a period of two weeks before commencement of behavioral testing. […] Following two weeks of treatment, memory impairment was induced by intraperitoneal (i.p.) injection of scopolamine (1 mg/kg) 30 minutes prior to each of the following behavioral tests: Y-maze, probe trial of the water maze and contextual and cued fear conditioning. Mice were allowed to rest for two days between each behavior test. All mice received scopolamine except for one of the control groups, which received saline as a control. Mice were sacrificed 24 hours after the last behavioral test for tissue harvesting.
Fear conditioning to either a cue or a context represents a form of associative learning. The read-out that is measured in contextual and cued fear conditioning is a freezing response that occurs following the pairing of an unconditioned stimulus (US), such as a foot shock, with a conditioned stimulus (CS), such as a particular context or cue (tone). The mouse will freeze if it remembers and associates that environment with the aversive stimulus. The hippocampus and the amygdala are required for fear memory where the hippocampus is involved in the formation and retrieval of context fear associations and the amygdala is involved in conditioning and recall of associations to contextual and discrete cues. This assay used fear conditioning chambers from Med Associates Inc. with Video Freeze Software (Med Associates Inc, St. Albans, VT, USA). On Day 1, mice were trained by allowing them to explore the chamber for 120 sec, mice were then presented with a 30-sec tone (2 kHz with 85 dB intensity) immediately followed by a 2-sec foot shock (0.7 mA). The tone-shock pairing was repeated following a 30-sec interval and the mice were again allowed to explore for 120 sec before removing them from the chamber. On Day 2, contextual memory, which requires a functioning hippocampus, was tested by placing the mice in the chambers and allowing them to explore for the same length of time as the previous day but without the tone and the shock. On Day 3, cued or emotional memory was tested, which relies on both hippocampus and amygdala. […] On Day 2, the time spent freezing is measured over the entire time in the chamber. […] The percentage of time spent freezing by each mouse is averaged per group and then groups can be compared and P-values calculated to determine statistical significance. On Day 3, the percentage of time spent freezing during the two tones is averaged per group, and then groups can be compared and P-values calculated to determine statistical significance. […]

dopamine transporter = dopamine transporter (Homo sapiens, UniProt Q01959); assay: dopamine transporter assay (MDS Pharma Services); type: binding
Protocol: All screening was done at 10 μM J147 by various contract research organizations (CROs), including MDS Pharma Services (King of Prussia, PA, USA), Ricerca, now Panlabs (Concord, OH, USA), Ambit (La Jolla, CA, USA), Caliper (Hopkinton, MA, USA) and NovaScreen Biosciences (Hanover, MD, USA) by standard protocols described in their catalogs.

[1] = pharmacokinetic profile in mice, per oral administration (Pharmaron); type: in vivo, CD1 Mice
Protocol: The pharmacokinetics of J147 in the mouse brain and plasma were evaluated using standard procedures. Blood and brain distribution of J147 following per oral (PO) administration was plotted for mice as a function of time (Figure 5). […] Additional de-risking and target identification screens were carried out at 10 μM J147 by various CROs (Table 2). […] All original data are available upon request.
Figure 5 Pharmacokinetic profile of J147 in mice. (A) The pharmacokinetic profile of J147 in mice was done by Pharmaron (Louisville, KY, USA). Plasma (B) and brain (C) distribution of J147 was plotted as a function of time following or per oral (PO) administration at 20 mg/kg.

neuroprotection assays = system: neuroprotection assays; set-up: method as in PMID 22194796; conditions: cited from earlier work

dopamine transporter, sequence (Q01959 whole entry): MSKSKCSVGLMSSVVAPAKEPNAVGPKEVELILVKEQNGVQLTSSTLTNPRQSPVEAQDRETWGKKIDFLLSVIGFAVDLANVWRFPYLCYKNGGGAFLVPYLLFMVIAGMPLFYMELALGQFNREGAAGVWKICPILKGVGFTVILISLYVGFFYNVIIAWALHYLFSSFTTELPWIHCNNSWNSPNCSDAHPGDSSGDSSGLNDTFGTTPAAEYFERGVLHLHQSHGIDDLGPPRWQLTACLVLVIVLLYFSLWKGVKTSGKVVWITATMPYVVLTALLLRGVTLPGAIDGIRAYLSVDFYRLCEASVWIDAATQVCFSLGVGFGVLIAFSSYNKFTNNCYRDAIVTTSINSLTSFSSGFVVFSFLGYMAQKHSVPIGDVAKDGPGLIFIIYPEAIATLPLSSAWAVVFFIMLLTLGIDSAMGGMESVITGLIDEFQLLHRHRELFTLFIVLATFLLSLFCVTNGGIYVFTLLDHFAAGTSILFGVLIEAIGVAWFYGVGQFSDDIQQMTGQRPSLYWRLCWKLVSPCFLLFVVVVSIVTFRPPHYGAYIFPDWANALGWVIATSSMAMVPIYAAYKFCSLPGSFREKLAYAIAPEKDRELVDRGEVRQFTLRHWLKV

COc1cccc(/C=N/N(C(=O)C(F)(F)F)c2ccc(C)cc2C)c1 [J147, (E)-N-(2,4-dimethylphenyl)-2,2,2-trifluoro-N'-(3methoxybenzyli-dene) acetohydrazide]
addiction (mice): no addiction | contextual memory (freezing Day 2) (C57BL/6J mice): it was not significant | cued memory (freezing in response to the tone, Day 3) (C57BL/6J mice): neither effect was significant | inhibition, dopamine transporter (dopamine transporter; 10 μM J147): greater than 60% | EC50 (dopamine transporter; dose response, re-assay after screening): 649 nM | brain levels ([1]; at 2 h after a single dose of 20 mg/kg in mice): about 600 nM | half life ([1]; brain, mice, PO): 2.5 h | bioavailability following oral administration ([1]; mice, PO): 28% | half life ([1]; plasma, mice, PO): 1.5 h | brain to blood ratio ([1]; single dose of 20 mg/kg in mice): approximately 0.5 | EC50 (neuroprotection assays): < 100 nM

— article PMC3706879, “The neurotrophic compound J147 reverses cognitive impairment in aged Alzheimer's disease mice” (Alzheimer's Research & Therapy, 2013)
